# Test system: Rattus norvegicus
# Assay: Antihyperglycemic activity in sucrose loaded diabetic Sprague-Dawley rat model assessed as reduction of plasma glucose levels at 100 mg/kg, po
# Assay type: functional
# Set-up: scale not given: the % may be the effect or the level left
row,SMILES,Activity [%]
1,COc1ccc(CCNC(=O)/C=C/c2ccccc2)cc1OC,20.1
2,O=C(/C=C/c1ccccc1)Nc1cc2ccccc2oc1=O,22.3
3,COc1ccc(CCNC(=O)/C=C/c2ccc(Cl)cc2)cc1OC,21.5
4,COc1ccc(/C=C/C(=O)NCCc2ccc(OC)c(OC)c2)cc1,19.5
5,COc1ccc(CCNC(=O)/C=C/c2cc(OC)c(OC)c(OC)c2)cc1OC,2.41
6,COc1ccc(CCNC(=O)/C=C/c2ccc(F)cc2)cc1OC,23.4
7,COc1ccc(CCNC(=O)/C=C/c2cccc(C(F)(F)F)c2)cc1OC,32.8
8,CN(C)C(=N)NC(=N)N [METFORMIN],12.9
9,COc1ccc(Cl)cc1C(=O)NCCc1ccc(S(=O)(=O)NC(=O)NC2CCCCC2)cc1 [GLYBURIDE],33.7
10,COc1cc(/C=C/C(=O)NCCc2ccc(OC)c(OC)c2)ccc1O,30.7
11,CC(C)(C)c1cc(C(C)(C)C)c2oc(=O)c(NC(=O)/C=C/c3ccccc3)cc2c1,8.89
12,O=C(Nc1cc2ccccc2oc1=O)c1ccccc1,10.7
13,CC(C)(C)c1cc(C(C)(C)C)c2oc(=O)c(NC(=O)/C=C/c3cccc(C(F)(F)F)c3)cc2c1,21.1
14,CC(C)(C)c1cc(C(C)(C)C)c2oc(=O)c(NC(=O)c3ccccc3)cc2c1,23.3
15,COc1cccc(/C=C/C(=O)NCCc2ccc(OC)c(OC)c2)c1,25.2
